# Assay: in vitro
# Settings: human, hela cells, % viability
row,Compound,"viability at 28.5 h, 10 µM"
1,Cc1ccc(-c2noc(CSc3nnc(-c4ccncc4)n3-c3ccc(C)cc3)n2)cc1 [CBK268879],101%
2,CCN1CCN(C(=O)CN(C)S(=O)(=O)c2ccc(OC)c(C)c2)CC1 [CBK268880],110%
3,CCOC(=O)c1cnc(Nc2nc3ccccc3o2)nc1CSc1ncccn1 [CBK268885],103%
4,CSc1ncc(Cl)c(C(=O)Nc2sc3c(c2C(=O)NC2CCS(=O)(=O)C2)CCC(C)C3)n1 (stereo not drawn) [CBK268886],95.2%
5,N#Cc1ccccc1COC(=O)c1cc(-c2ccc(/C=C/c3[nH]c(=O)[nH]c(=O)c3[N+](=O)[O-])o2)ccc1Cl [CBK268888],111%
6,CCOC(=O)C1=C(CSc2nc3ccccc3[nH]2)NC(=O)NC1c1cccc([N+](=O)[O-])c1 (stereo not drawn) [CBK268889],96.2%
7,N=C(Nc1nc(CSc2nnc(N)s2)cc(=O)[nH]1)Nc1ccc(Cl)cc1Cl [CBK268890],85.5%
8,Cc1ccc(-n2c(SCC(=O)NCc3ccccc3)nnc2-c2ccccc2O)c(C)c1 [CBK268892],91.5%
9,COc1ccc(Cl)cc1NC(=O)C1CC(=O)N=C(N2CCOCC2)N1 (stereo not drawn) [CBK268893],100%
10,O=C1c2cccc3cccc(c23)C(=O)N1CCCSc1nnc[nH]1 [CBK268894],66.4%
11,COc1ccc(N2C(=O)CC(n3c(CCCCO)nc4ccccc43)C2=O)cc1 (stereo not drawn) [CBK268895],107%
12,Cc1cc(C)c(C)c(S(=O)(=O)NCCCC(=O)O)c1C [CBK268898],83.8%
13,COc1ccc(Cl)c(NC(=O)NCCN2CCN(c3ccccc3)CC2)c1 [CBK268899],90.7%
14,COc1ccccc1NS(=O)(=O)c1ccc2c(c1)C1C=CCC1C(c1ccc(C(=O)O)cc1)N2 (stereo not drawn) [CBK268903],101%
15,CSc1nsc(SCC(=O)c2ccc3c(c2)OCCO3)n1 [CBK268904],108%
16,Cc1ccc(-n2c(SCC(=O)Nc3ccccc3F)nnc2-c2ccccc2O)c(C)c1 [CBK268905],88.6%
17,CSc1nc(-n2nc(C)cc2C)c2c3c(sc2n1)COC(C)(C)C3 [CBK268906],89.7%
18,Cc1cccnc1NC(=S)NCc1ccco1 [CBK268907],103%
19,O=C(NC(=S)Nc1ccc2[nH]c(=O)[nH]c2c1)c1ccc(OCc2ccccc2)cc1 [CBK268908],83.8%
20,COc1ccc(C(=O)c2ccc(N3CCN(C4CC(=O)NC4=O)CC3)cc2)cc1F (stereo not drawn) [CBK268909],94.2%
21,Cc1ccc(Cn2nc(C)c(NC(=O)c3nc4ncccn4n3)c2C)cc1 [CBK268912],90.9%

row,Compound,"viability at 28.5 h, 10 µM"
1,Cc1c(Br)c([N+](=O)[O-])nn1C(C)C(=O)Nc1sc2c(c1C(N)=O)CCCC2 (stereo not drawn) [CBK268914],88.1%
2,O=C(O)c1cn(C2CC2)c2cc(N3CCN(C(=S)Nc4ccc5c(c4)OCCO5)CC3)c(F)cc2c1=O [CBK268916],90.9%
3,CCOC(=O)c1ccc(NC(=O)c2ccccc2-c2nc(-c3ccccc3Cl)no2)cc1 [CBK268919],111%
4,CSc1ncc(Cl)c(C(=O)Nc2nnc(C)s2)n1 [CBK268920],90.1%
5,CCC(C)NC(=O)c1ccc2nccnc2c1 (stereo not drawn) [CBK268921],89.4%
6,NC(=O)CSc1nc(NCc2ccccc2)nc(N2CCOCC2)n1 [CBK268923],93.3%
7,COc1ccc(N2C(=O)CC(N3CCN(c4ccc(C(=O)c5cccnc5)cc4)CC3)C2=O)cc1 (stereo not drawn) [CBK268924],92.7%
8,O=C(CN1CCCC1)Nc1sc2c(c1C(=O)NCc1ccccc1)CCCC2 [CBK268926],105%
9,N=c1n(CCCOc2ccccc2Cl)c2ccccc2n1CC(N)=O [CBK268927C],106%
10,O=C(COc1ccc2oc3ccccc3c2c1)c1ccccc1 [CBK268931],99.5%
11,NC(=O)c1ccc(NC(=O)CCCc2nc(-c3ccccc3Cl)no2)cc1 [CBK268932],103%
12,Cn1c(=O)c2c(ncn2CCCn2cnc3c2c(=O)n(C)c(=O)n3C)n(C)c1=O [CBK268933],106%
13,O=C(c1ccncc1)c1ccc(N2CCN(C3CC(=O)N(Cc4ccccc4)C3=O)CC2)cc1 (stereo not drawn) [CBK268934],106%
14,NS(=O)(=O)c1ccc(NCc2ccccc2OCc2ccccc2F)cc1 [CBK268935],91.8%
15,Cc1ccc(S(=O)(=O)Nc2ccc(-c3cn4cccnc4n3)cc2)cc1[N+](=O)[O-] [CBK268936],60.5%
16,Cc1cc(C)nc(SCC(=O)Nc2cc(C(=O)O)cc([N+](=O)[O-])c2)n1 [CBK268937],86.8%
17,Cc1ccccc1NC(=O)COc1ccc(S(=O)(=O)N2CCCC2)cc1Cl [CBK268938],95.2%
18,Cn1c(=O)c2c(nc(NCCCO)n2C/C=C/c2ccccc2)n(C)c1=O [CBK268940],87.2%
19,CSc1nsc(SCC(=O)OC2CC3CCC2(C)C3(C)C)n1 (stereo not drawn) [CBK268941],92.5%
20,Cc1sc(NC(=S)NC(=O)C(C)(C)C)c(C(N)=O)c1C [CBK268943],97.1%
21,Cc1ccc(CCC(=O)C(C#N)c2nc3ccccc3s2)o1 (stereo not drawn) [CBK268944],112%

row,Compound,"viability at 28.5 h, 10 µM"
1,O=C(NC(=S)Nc1ccc(N2CCN(Cc3ccccc3F)CC2)cc1)c1ccco1 [CBK268946],92.6%
2,CSc1nsc(SCC(=O)Nc2ccc(OC(C)=O)cc2)n1 [CBK268948],88.1%
3,CCc1c(C)nc2n(c1=O)C(CS(=O)(=O)c1ccccc1)CS2 (stereo not drawn) [CBK268949],94.7%
4,COc1ccc([N+](=O)[O-])cc1NC(=O)CSc1nnnn1C [CBK268950],93%
5,COc1ccc(/C(C#N)=C/c2ccc(-c3ccc(C(=O)O)cc3)o2)cc1OC [CBK268953],108%
6,CC(c1ccccc1)n1c(S)nnc1-c1cc(C(C)(C)C)n[nH]1 (stereo not drawn) [CBK268954],92.2%
7,CCOC(=O)C1CCN(S(=O)(=O)c2ccc(OC)c(C)c2C)CC1 [CBK268955],96.1%
8,CSc1ncc(Cl)c(C(=O)Nc2sc3c(c2C(=O)NCC2CCCO2)CCC3)n1 (stereo not drawn) [CBK268959],95%
9,O=C(c1ccc([N+](=O)[O-])cc1)n1nc(-c2cccnc2)nc1NCc1ccc(F)cc1 [CBK268962],96.6%
10,O=C(Nc1cccc(-c2cn3cccnc3n2)c1)c1cccc([N+](=O)[O-])c1 [CBK268963],93%
11,NC(=O)CSc1nnc(-c2cc3ccccc3o2)n1Cc1ccccc1 [CBK268964],90.1%
12,COc1ccc(CNc2nc(-c3cccnc3)nn2C(=O)c2ccc([N+](=O)[O-])cc2)cc1 [CBK268966],98.9%
13,O=C(O)CCNS(=O)(=O)c1ccc(I)cc1 [CBK268968],111%
14,CN1CCN(C(=O)CSc2nnc(COc3ccccc3)o2)CC1 [CBK268970],85.4%
15,CSc1ncc(Cl)c(C(=O)Nc2sc3c(c2C(=O)NCc2ccco2)CCCC3)n1 [CBK268971],96.6%
16,NS(=O)(=O)c1ccc(NC(=O)c2cc([N+](=O)[O-])ccc2N2CCOCC2)cc1 [CBK268972],101%
17,Cc1cc(C)c(C)c(OCC(=O)N(Cc2nc(-c3ccccc3)no2)C2CCCCC2)c1 [CBK268974],104%
18,Nc1nn(S(=O)(=O)c2cccc3nsnc23)cc1-c1ccc(Br)cc1 [CBK268975],107%
19,CSc1ncc(Cl)c(C(=O)Nc2sc3c(c2C(=O)NCc2ccccc2)CCCC3)n1 [CBK268976],99.5%
20,N#C/C(=C/c1cn(CC(=O)O)c2ccccc12)c1ccc(C(=O)O)cc1 [CBK268977],111%
21,NC(=O)CC1C(=O)N(c2ccc(F)cc2)C(=S)N1NC(=O)CCc1ccccc1 (stereo not drawn) [CBK268978A],108%

row,Compound,"viability at 28.5 h, 10 µM"
1,Cc1occc1-c1nnc(SCC(=O)Nc2cccc3nsnc23)o1 [CBK268979],89.5%
2,Cc1ccc(NC(=O)C2CC=CCC2C(=O)O)cc1NC(=O)c1ccc(Cl)cc1 (stereo not drawn) [CBK268980],92.6%
3,Cc1nn(CCCC(=O)Nc2sc3c(c2C#N)CCC(C(C)(C)C)C3)c(C)c1[N+](=O)[O-] (stereo not drawn) [CBK268982],103%
4,Cc1cc(-c2nnc(SCC(=O)N3CCOCC3)o2)no1 [CBK268984],103%
5,O=C(O)CCc1ccc(-c2ccc(F)cc2)n1CC1CCCO1 (stereo not drawn) [CBK268988],86.5%
6,COc1ccc(N2CCN(CC(=O)N3CCC(C(N)=O)CC3)CC2)cc1 [CBK268993],96.6%
7,CS(=O)(=O)N(CC(=O)Nc1ccc(S(=O)(=O)N2CCCC2)cc1)c1ccc2c(c1)OCO2 [CBK268995],97.7%
8,N#Cc1ccccc1CSc1nc(N2CCOCC2)nc(N2CCOCC2)n1 [CBK268998],92.3%
9,CN1CCN(C(=O)C2CCCN(S(=O)(=O)c3ccc(Br)cc3)C2)CC1 (stereo not drawn) [CBK269006],107%
10,O=C(CSc1nnc(-c2cc(Br)ccc2O)[nH]1)NCCc1ccccc1 [CBK269007],85.8%
11,COc1cc(C2c3c(-c4cc(C)c(C)cc4O)n[nH]c3C(=O)N2CCO)cc(Br)c1O (stereo not drawn) [CBK269009],112%
12,CCn1c2ccccc2c2cc(NC(=O)CSc3nnc(-c4ccoc4C)o3)ccc21 [CBK269010],105%
13,Cc1cc(C)n2nc(C(=O)NCc3ccccn3)cc2n1 [CBK269015],89.3%
14,CC(C)(C)c1ccc(O)c(NC(=S)NC(=O)c2cccc(OCc3ccccc3)c2)c1 [CBK269018],97.3%
15,COc1cc(C2NC(=O)N(CCc3ccccc3)C(c3ccccc3)=C2C(C)=O)ccc1O (stereo not drawn) [CBK269024],108%
16,CCOC(=O)c1cnc(SCC(=O)N2c3ccccc3SC3C=CC=CC32)nc1N (stereo not drawn) [CBK269029],99.6%
17,Cc1cccc(OCc2nnc(SCc3nc4ccccc4c(=O)[nH]3)o2)c1 [CBK269030],98.7%
18,O=S(=O)(N1CCCCC1)N1CCN(CC(O)COc2ccc3cc(Br)ccc3c2)CC1 (stereo not drawn) [CBK269032],106%
19,NC(=O)CC1C(=O)N(c2ccc(F)cc2)C(=O)N1NC(=O)CCc1ccccc1 (stereo not drawn) [CBK269033],104%
20,O=C(Nc1ccncc1)c1ccc2nc[nH]c2c1 [CBK269034],93.2%
21,Cc1cc(N2C(=O)CC(N3CCC(C(=O)N4CCOCC4)CC3)C2=O)no1 (stereo not drawn) [CBK269035],92.6%

# Source: paper PMC12040169 (PLOS Biology, 2025)
